# Experimental data reported in patent US11771738B2 (Zoetis Services LLC, priority 2018, dated 2023).
# Like-named read-outs stand apart in the source and are kept apart here.
# Columns and labels:
# Format in all cases: cell-based
# [1] = tested on: third stage larvae of Haemonchus contortus; assay: Haemonchus contortus, Larvae Stage 3 (HcL3) In Vitro Assay; conditions: Haemonchus contortus, 96 h
# [2] = tested on: microfilariae of Dirofilaria immitis; assay: Dirofilaria immitis, Microfilaria (DiMf) In Vitro Assay; conditions: Dirofilaria immitis, 72 h, read-out: DiMf MED, Minimum Effective Dose, D. immitis microfilariae motility, in vitro
# [3] = tested on: D. immitis L4 larvae; assay: Dirofilaria immitis, L4 Stage (DiL4) In Vitro Assay; conditions: for minimal effective concentration: Dirofilaria immitis, 72 h, read-out: DiL4 MED, Minimum Effective Dose, D. immitis L4 larvae motility, in vitro; for DiMf/DiL4: larval stage selectivity, ratio of DiMf MED to DiL4 MED
# [4] = read-out: HcL3 MED, Minimum Effective Dose, H. contortus third stage larvae, approximately 96 hours
# [5] = read-out: HcL3 MED, Haemonchus contortus third stage larvae in vitro, class mark appended to the Ex # in Table 3
# [6] = read-out: HcL3 MED, approximately 96 hours incubation, multiple-resistant field isolate
# [7] = read-out: HcL3 MED (symbol after Ex#), approximately 96 hours incubation, multiple-resistant field isolate
SMILES,"minimal effective concentration [1, 4] [µM]",minimal effective concentration [2] [µM],minimal effective concentration [3] [µM],DiMf/DiL4 [3],"minimal effective concentration [1, 5] [µM]","minimal effective concentration [1, 6] [µM]","minimal effective concentration [1, 7] [µM]"
"Cc1cc(F)ncc1Cc1ccc(C[C@H]2OC(=O)[C@H](CC(C)C)N(C)C(=O)[C@@H](C)OC(=O)[C@H](CC(C)C)N(C)C(=O)[C@@H](Cc3ccc(Cc4cnc(F)cc4C)cc3)OC(=O)[C@H](CC(C)C)N(C)C(=O)[C@@H](C)OC(=O)[C@H](CC(C)C)N(C)C2=O)cc1 [Example 3-322, (3S,6R,9S,12R,15S,18R,21S,24R)-6,18-bis(4-((6-fluoro-4-methylpyridin-3-yl)methyl)benzyl)-3,9,15,21-tetraisobutyl-4,10,12,16,22,24-hexamethyl-1,7,13,19-tetraoxa-4,10,16,22-tetraazacyclotetracosan-2,5,8,11,14,17,20,23-octaone]",10,0.01,0.0003,33.3,,,
"CC(C)C[C@H]1C(=O)O[C@H](Cc2ccc(Cc3cccnc3F)cc2)C(=O)N(C)[C@@H](CC(C)C)C(=O)O[C@H](C)C(=O)N(C)[C@@H](CC(C)C)C(=O)O[C@H](Cc2ccc(Cc3cccnc3F)cc2)C(=O)N(C)[C@@H](CC(C)C)C(=O)O[C@H](C)C(=O)N1C [Example 3-323, (3S,6R,9S,12R,15S,18R,21S,24R)-6,18-bis(4-((2-fluoropyridin-3-yl)methyl)benzyl)-3,9,15,21-tetraisobutyl-4,10,12,16,22,24-hexamethyl-1,7,13,19-tetraoxa-4,10,16,22-tetraazacyclotetracosan-2,5,8,11,14,17,20,23-octaone]",0.3,0.001,0.0001,10,< 1,≤ 1,
"CC(C)C[C@H]1C(=O)O[C@H](Cc2ccc(Cc3ccnc(F)c3F)cc2)C(=O)N(C)[C@@H](CC(C)C)C(=O)O[C@H](C)C(=O)N(C)[C@@H](CC(C)C)C(=O)O[C@H](Cc2ccc(Cc3ccnc(F)c3F)cc2)C(=O)N(C)[C@@H](CC(C)C)C(=O)O[C@H](C)C(=O)N1C [Example 3-326, (3S,6R,9S,12R,15S,18R,21S,24R)-6,18-bis(4-((2,3-difluoropyridin-4-yl)methyl)benzyl)-3,9,15,21-tetraisobutyl-4,10,12,16,22,24-hexamethyl-1,7,13,19-tetraoxa-4,10,16,22-tetraazacyclotetracosan-2,5,8,11,14,17,20,23-octaone]",10,0.03,0.0003,100,,,
"CC(C)C[C@H]1C(=O)O[C@H](Cc2ccc(Cc3cccnc3Br)cc2)C(=O)N(C)[C@@H](CC(C)C)C(=O)O[C@H](C)C(=O)N(C)[C@@H](CC(C)C)C(=O)O[C@H](Cc2ccc(Cc3cccnc3Br)cc2)C(=O)N(C)[C@@H](CC(C)C)C(=O)O[C@H](C)C(=O)N1C [Example 3-329, (3S,6R,9S,12R,15S,18R,21S,24R)-6,18-bis(4-((2-bromopyridin-3-yl)methyl)benzyl)-3,9,15,21-tetraisobutyl-4,10,12,16,22,24-hexamethyl-1,7,13,19-tetraoxa-4,10,16,22-tetraazacyclotetracosan-2,5,8,11,14,17,20,23-octaone]",,0.001,0.0001,10,< 1,≤ 1,
"CC(C)C[C@H]1C(=O)O[C@H](Cc2ccc(Cc3cnccc3C(F)(F)F)cc2)C(=O)N(C)[C@@H](CC(C)C)C(=O)O[C@H](C)C(=O)N(C)[C@@H](CC(C)C)C(=O)O[C@H](Cc2ccc(Cc3cnccc3C(F)(F)F)cc2)C(=O)N(C)[C@@H](CC(C)C)C(=O)O[C@H](C)C(=O)N1C [Example 3-333, (3S,6R,9S,12R,15S,18R,21S,24R)-3,9,15,21-tetraisobutyl-4,6,10,16,18,22-hexamethyl-12,24-bis(4-((4-(trifluoromethyl)pyridin-3-yl)methyl)benzyl)-1,7,13,19-tetraoxa-4,10,16,22-tetraazacyclotetracosan-2,5,8,11,14,17,20,23-octaone]",,0.003,0.0002,17,< 1,≤ 1,
"COc1nccc(Cc2ccc(C[C@H]3OC(=O)[C@H](CC(C)C)N(C)C(=O)[C@@H](C)OC(=O)[C@H](CC(C)C)N(C)C(=O)[C@@H](Cc4ccc(Cc5ccnc(OC)c5OC)cc4)OC(=O)[C@H](CC(C)C)N(C)C(=O)[C@@H](C)OC(=O)[C@H](CC(C)C)N(C)C3=O)cc2)c1OC [Example 3-334, (3S,6R,9S,12R,15S,18R,21S,24R)-6,18-bis(4-((2,3-dimethoxypyridin-4-yl)methyl)benzyl)-3,9,15,21-tetraisobutyl-4,10,12,16,22,24-hexamethyl-1,7,13,19-tetraoxa-4,10,16,22-tetraazacyclotetracosan-2,5,8,11,14,17,20,23-octaone]",0.1,0.003,0.0003,10,< 1,≤ 1,
"CC(C)C[C@H]1C(=O)O[C@H](Cc2ccc(Cc3ccc4cn[nH]c4c3)cc2)C(=O)N(C)[C@@H](CC(C)C)C(=O)O[C@H](C)C(=O)N(C)[C@@H](CC(C)C)C(=O)O[C@H](Cc2ccccc2)C(=O)N(C)[C@@H](CC(C)C)C(=O)O[C@H](C)C(=O)N1C [Example 4-18, (3S,6R,9S,12R,15S,18R,21S,24R)-6-(4-((1H-indazol-6-yl)methyl)benzyl)-18-benzyl-3,9,15,21-tetraisobutyl-4,10,12,16,22,24-hexamethyl-1,7,13,19-tetraoxa-4,10,16,22-tetraazacyclotetracosan-2,5,8,11,14,17,20,23-octaone]",> 10,0.05,0.001,50,,,
"Cc1c[nH]c(C)c1Cc1ccc(C[C@H]2OC(=O)[C@H](CC(C)C)N(C)C(=O)[C@@H](C)OC(=O)[C@H](CC(C)C)N(C)C(=O)[C@@H](Cc3ccccc3)OC(=O)[C@H](CC(C)C)N(C)C(=O)[C@@H](C)OC(=O)[C@H](CC(C)C)N(C)C2=O)cc1 [Example 4-19, (3S,6R,9S,12R,15S,18R,21S,24R)-6-benzyl-18-(4-((2,4-dimethyl-1H-pyrrol-3-yl)methyl)benzyl)-3,9,15,21-tetraisobutyl-4,10,12,16,22,24-hexamethyl-1,7,13,19-tetraoxa-4,10,16,22-tetraazacyclotetracosan-2,5,8,11,14,17,20,23-octaone]",> 10,0.1,0.001,100,,,
"CC(C)C[C@H]1C(=O)O[C@H](Cc2ccc(C(O)c3coc4ccccc34)cc2)C(=O)N(C)[C@@H](CC(C)C)C(=O)O[C@H](C)C(=O)N(C)[C@@H](CC(C)C)C(=O)O[C@H](Cc2ccccc2)C(=O)N(C)[C@@H](CC(C)C)C(=O)O[C@H](C)C(=O)N1C (stereo partly drawn) [Example 4-21, (3S,6R,9S,12R,15S,18R,21S,24R)-6-(4-(benzofuran-3-yl(hydroxy)methyl)benzyl)-18-benzyl-3,9,15,21-tetraisobutyl-4,10,12,16,22,24-hexamethyl-1,7,13,19-tetraoxa-4,10,16,22-tetraazacyclotetracosan-2,5,8,11,14,17,20,23-octaone]",> 10,0.05,0.001,50,,,
"CC(C)C[C@H]1C(=O)O[C@H](Cc2ccc(Cc3ncco3)cc2)C(=O)N(C)[C@@H](CC(C)C)C(=O)O[C@H](C)C(=O)N(C)[C@@H](CC(C)C)C(=O)O[C@H](Cc2ccccc2)C(=O)N(C)[C@@H](CC(C)C)C(=O)O[C@H](C)C(=O)N1C [Example 4-30, (3S,6R,9S,12R,15S,18R,21S,24R)-6-benzyl-3,9,15,21-tetraisobutyl-4,10,12,16,22,24-hexamethyl-18-(4-(oxazol-2-ylmethyl)benzyl)-1,7,13,19-tetraoxa-4,10,16,22-tetraazacyclotetracosan-2,5,8,11,14,17,20,23-octaone]",1,0.001,0.001,1,,≤ 1,< 1
"CC(C)C[C@H]1C(=O)O[C@H](Cc2ccc(Cc3ccco3)cc2)C(=O)N(C)[C@@H](CC(C)C)C(=O)O[C@H](C)C(=O)N(C)[C@@H](CC(C)C)C(=O)O[C@H](Cc2ccccc2)C(=O)N(C)[C@@H](CC(C)C)C(=O)O[C@H](C)C(=O)N1C [Example 4-32, (3S,6R,9S,12R,15S,18R,21S,24R)-6-benzyl-18-(4-(furan-2-ylmethyl)benzyl)-3,9,15,21-tetraisobutyl-4,10,12,16,22,24-hexamethyl-1,7,13,19-tetraoxa-4,10,16,22-tetraazacyclotetracosan-2,5,8,11,14,17,20,23-octaone]",1,0.003,0.001,3,,≤ 1,< 1
"Cc1ccsc1Cc1ccc(C[C@H]2OC(=O)[C@H](CC(C)C)N(C)C(=O)[C@@H](C)OC(=O)[C@H](CC(C)C)N(C)C(=O)[C@@H](Cc3ccccc3)OC(=O)[C@H](CC(C)C)N(C)C(=O)[C@@H](C)OC(=O)[C@H](CC(C)C)N(C)C2=O)cc1 [Example 4-34, (3S,6R,9S,12R,15S,18R,21S,24R)-6-benzyl-3,9,15,21-tetraisobutyl-4,10,12,16,22,24-hexamethyl-18-(4-((3-methylthiophen-2-yl)methyl)benzyl)-1,7,13,19-tetraoxa-4,10,16,22-tetraazacyclotetracosan-2,5,8,11,14,17,20,23-octaone]",0.5,0.01,0.0003,33.3,,≤ 1,< 1
